Test results from PMC5598505 (Toxicology Reports, 2014).
pIC50: −log10 of the molar value.

Biological target: T1, aromatase (CYP19A1) (Homo sapiens, UniProt P11511)
T1 sequence (P11511 1-503): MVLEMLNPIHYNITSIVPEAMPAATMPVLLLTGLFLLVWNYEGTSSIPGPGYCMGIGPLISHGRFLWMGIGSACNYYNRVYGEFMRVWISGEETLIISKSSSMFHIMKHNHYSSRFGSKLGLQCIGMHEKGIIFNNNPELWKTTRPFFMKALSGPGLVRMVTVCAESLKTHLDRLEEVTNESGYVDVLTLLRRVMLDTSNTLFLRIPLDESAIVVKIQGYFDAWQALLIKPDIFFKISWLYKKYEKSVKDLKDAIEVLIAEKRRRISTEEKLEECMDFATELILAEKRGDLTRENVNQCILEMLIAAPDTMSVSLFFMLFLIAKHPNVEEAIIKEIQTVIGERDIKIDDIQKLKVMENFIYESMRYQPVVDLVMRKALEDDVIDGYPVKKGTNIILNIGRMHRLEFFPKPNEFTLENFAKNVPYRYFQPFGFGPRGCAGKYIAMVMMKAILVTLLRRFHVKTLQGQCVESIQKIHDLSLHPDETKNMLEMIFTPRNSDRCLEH
Assay: tritiated water-release aromatase assay in KGN cells after 24-h exposure
Type: cell-based

**Q.** How did the pIC50 turn out when CC(C)=CCc1c(O)cc(O)c2c1O[C@H](c1ccc(O)cc1)CC2=O [8-PN, 8-prenylnaringenin] was run?
**A.** 8.10
